In patent US20250353873A1, “COMPOUNDS AND METHODS FOR MODULATING APOE EXPRESSION” (Ionis Pharmaceuticals, Inc., priority 2024, published 2025):
Strand notation (5' to 3'): a small letter for the sugar, then the base; units joined by * are phosphorothioate-linked, units joined directly phosphodiester-linked; [ ] holds rarer units or linkages, { } end groups; capitals alone tell only the bases. [ms] = mesyl phosphoramidate linkage; k = constrained ethyl (cEt); [5mC] = 5-methylcytosine; d = 2'-deoxy (DNA)

Columns and labels:
human APOE RNA [1] = experiment: Activity in APOE C57BL/6NTac-Apoeem7250 knock-in mice, single ICV bolus, 16 weeks (Example 12); format: in vivo; settings: single ICV bolus 300 μg, 16 weeks post treatment, normalized to mouse Ppia
How it was run: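 A single 300 μg intracerebroventricular dose was given, with PBS-treated mice as reference; cortical and spinal cord tissue was taken 16 weeks later. RT-qPCR quantified human APOE RNA, Ppia-normalized, expressed relative to PBS animals (% control).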

human APOE RNA [2] = experiment: Activity in APOE C57BL/6NTac-Apoeem7250 knock-in mice, single ICV bolus, 8 weeks (Example 11); format: in vivo; settings: single ICV bolus 300 μg, 8 weeks post treatment, normalized to mouse Ppia
How it was run: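 Cortical and spinal cord human APOE RNA quantified by RT-qPCR 8 weeks after a single 300 μg ICV dose in knock-in mice, Ppia-normalized. Values are percent of levels in PBS-treated animals.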

human APOE RNA [3] = experiment: Activity in APOE C57BL/6NTac-Apoeem7250 knock-in mice, single ICV bolus, 4 weeks (Example 10); format: in vivo; settings: single ICV bolus 300 μg, 4 weeks post treatment, normalized to mouse Ppia
How it was run: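 Human APOE RNA, quantified by real-time RT-PCR with RTS3073 and normalized to mouse Ppia, was read in cortical brain and spinal cord 4 weeks post dosing. Dosing was a single ICV bolus of 300 μg per knock-in mouse; values are % of PBS-treated animals.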

human APOE RNA [4] = experiment: Dose-dependent reduction of human APOE RNA in HepG2 cells, electroporation, 20,000 cells per well, average of GAPDH- and PPIA-normalized results (Example 4, Table 12); format: cell-based; settings: HepG2, 20,000 cells per well; for IC50: approximately 24 hours
Experimental: HepG2 cells plated at a density of 20,000 cells per well were treated by electroporation with various concentrations of modified oligonucleotide as specified in the tables below. […] APOE RNA levels were measured using the human primer probe set RTS3073 (described herein above). APOE RNA levels were normalized to human GAPDH, and human PPIA. Human GAPDH was amplified using human primer probe set RTS104 (described herein above). Human PPIA was amplified using human primer probe set mk_cycloA_2nd (described herein above) The average of the GAPDH-normalized results and the PPIA-normalized results are presented in the table below as percent APOE RNA, relative to the amount of APOE RNA in untreated control cells (% UTC). The half maximal inhibitory concentration (IC50) of each modified oligonucleotide was calculated in GraphPad Prism 10 (GraphPad Software, San Diego, CA) and is also presented in the table below.

human APOE RNA [5] = experiment: Dose-dependent inhibition of human APOE RNA in differentiated SH-SY5Y cells, free uptake, 5 days (Example 5); format: cell-based; settings: 5 days (Table 14)
How it was run: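 APOE RNA, measured by RTS3073 primer probe set and normalized to human PPIA, is reported as % of untreated control cells, with IC50 fitted. Cells were differentiated SH-SY5Y at 10,000/well, given modified oligonucleotide at several concentrations by free uptake for 5 days.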

human APOE RNA [6] = experiment: Activity in APOE C57BL/6NTac-Apoeem7250 knock-in mice, single ICV bolus, 20 weeks (Example 13); format: in vivo; settings: single ICV bolus 300 μg, 20 weeks post treatment, normalized to mouse Ppia
How it was run: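 Cortical and spinal cord RNA was assayed by real-time RT-PCR for human APOE, normalized to mouse Ppia and reported as percent of PBS controls. Tissue was taken twenty weeks after one 300 μg intracerebroventricular bolus in APOE knock-in mice, 4 per group.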

Substance | APOE RNA (% control) Cortex (human APOE RNA [1]) [% control] | APOE RNA (% control) Spinal Cord (human APOE RNA [1]) [% control] | APOE RNA (% control) Cortex (human APOE RNA [2]) [% control] | APOE RNA (% control) Spinal Cord (human APOE RNA [2]) [% control] | APOE RNA (% control) Cortex (human APOE RNA [3]) [% control] | APOE RNA (% control) Spinal Cord (human APOE RNA [3]) [% control] | APOE RNA (% UTC) (human APOE RNA [4]; 5 nM) | APOE RNA (% UTC) (human APOE RNA [4]; 13 nM) | APOE RNA (% UTC) (human APOE RNA [4]; 33 nM) | APOE RNA (% UTC) (human APOE RNA [4]; 82 nM) | APOE RNA (% UTC) (human APOE RNA [4]; 205 nM) | APOE RNA (% UTC) (human APOE RNA [4]; 512 nM) | APOE RNA (% UTC) (human APOE RNA [4]; 1,280 nM) | APOE RNA (% UTC) (human APOE RNA [4]; 3,200 nM) | APOE RNA (% UTC) (human APOE RNA [4]; 8,000 nM) | APOE RNA (% UTC) (human APOE RNA [4]; 20,000 nM) | IC50 (human APOE RNA [4]) [nM] | APOE RNA (% UTC) (human APOE RNA [5]; 5 nM) | APOE RNA (% UTC) (human APOE RNA [5]; 13 nM) | APOE RNA (% UTC) (human APOE RNA [5]; 33 nM) | other results
1785599: modified oligonucleotide complementary to human APOE RNA (k[5mC]*kT*kT*dG[ms]dG[ms]dT[ms]dG[ms]dA[ms]dA[ms]dT[ms]d[5mC]*dT*dT*dT*dA*dT*kT*kA*dA[ms]kA; antisense) [compound 1785599] | 35 | 54 | 26 | 34 | 32 | 38 | 100 | 106 | 93 | 81 | 71 | 43 | 32 | 18 | 10 | 15 | 510 | 77 | 61 | 72 | APOE RNA (% UTC) (human APOE RNA [5]; 82 nM): 60 % UTC; APOE RNA (% UTC) (human APOE RNA [5]; 205 nM): 46 % UTC; APOE RNA (% UTC) (human APOE RNA [5]; 512 nM): 20 % UTC; APOE RNA (% UTC) (human APOE RNA [5]; 1,280 nM): 21 % UTC; APOE RNA (% UTC) (human APOE RNA [5]; 3,200 nM): 17 % UTC; APOE RNA (% UTC) (human APOE RNA [5]; 8,000 nM): 12 % UTC; APOE RNA (% UTC) (human APOE RNA [5]; 20,000 nM): 6 % UTC; IC50 (human APOE RNA [5]): 100 nM; APOE RNA (% control) Cortex (human APOE RNA [6]): 55 % control; APOE RNA (% control) Spinal Cord (human APOE RNA [6]): 20 % control
1785617: modified oligonucleotide complementary to human APOE RNA (k[5mC]*dT[ms]dT[ms]kG*dG[ms]kT*dG[ms]dA[ms]dA[ms]dT[ms]d[5mC]*dT*dT*dT*dA*dT*kT*kA*dA[ms]kA; antisense) [compound 1785617] | 37 | 28 | 30 | 213 | 39 | 38 | 95 | 93 | 82 | 68 | 55 | 32 | 23 | 16 | 20 | 6 | 260 | 118 | 116 | 84 | APOE RNA (% UTC) (human APOE RNA [5]; 82 nM): 71 % UTC; APOE RNA (% UTC) (human APOE RNA [5]; 205 nM): 59 % UTC; APOE RNA (% UTC) (human APOE RNA [5]; 512 nM): 56 % UTC; APOE RNA (% UTC) (human APOE RNA [5]; 1,280 nM): 29 % UTC; APOE RNA (% UTC) (human APOE RNA [5]; 3,200 nM): 21 % UTC; APOE RNA (% UTC) (human APOE RNA [5]; 8,000 nM): 22 % UTC; APOE RNA (% UTC) (human APOE RNA [5]; 20,000 nM): 10 % UTC; IC50 (human APOE RNA [5]): 520 nM; APOE RNA (% control) Cortex (human APOE RNA [6]): 61 % control; APOE RNA (% control) Spinal Cord (human APOE RNA [6]): 38 % control
